Series [1] is described as follows: Liver microsomal stability, human liver microsomes. Format: in vitro ADME. Particulars: 1 μM compound, NADPH, read-out: t1/2 (min) in HLM. On the procedure: (§1) Certain Compounds of the Disclosure were assessed for ADME metabolic stability in human liver microsomes (HLM) and rat liver microsomes (RLM).
(§2) Samples were prepared by adding 222.5 μL of a master solution (100 mM phosphate buffer and 1 mg/mL liver microsomes (HLM or RLM)) and 25 μL of a 10 mM NADPH solution to incubation plates, which were then warmed for 10 min. Each compound was separately dissolved in DMSO to prepare 10 mM stock solutions, which were then diluted to 100 μM with acetonitrile. A reaction was started by adding 2.5 μL of the 100 μM solution of each compound to separate incubation plates such that the final concentration of for each compound in each plate was 1 μM.
(§3) 25 μL aliquots of each sample were taken at 0.5, 5, 10, 15, 20 and 30 minutes, and the reaction was stopped by adding 5 volumes of cold acetonitrile with IS (100 nM alprazolam, 200 nM caffeine and 100 nM tolbutamide). The samples were then centrifuged at 3,220 G for 30 minutes, and 100 μL of the supernatant fluid was mixed with 100 μL of ultra-pure H2O.
(§4) The samples were then analyzed by LC-MS/MS. Peak areas were determined from extracted ion chromatograms. Slope values (k) were determined by linear regression of the natural logarithm of the remaining percentage of the compound vs. incubation time curve. […] The in vitro half-life (min) was converted into the in vitro intrinsic clearance (in vitro CLint, in μL/min/mg protein) using the following equation: […]

Series [2] is described as follows: ADME solubility determination at pH 2.0 and pH 7.4. Format: physicochemical. Particulars: aqueous buffer, thermodynamic from solid, LC-MS/MS. On the procedure:
Certain Compounds of the Disclosure were assessed for ADME solubility at pH 2.0 and pH 7.4.
Stock solutions were prepared by adding each compound to DMSO at a concentration of 10 mM. Samples were prepared by adding 50 μL of each stock solution to separate vials. The vials were loaded onto a 96-well rack and dried. 500 μL of Phosphate Buffered Saline (PBS) pH 7.4 or PBS pH 2.0 were added into each vial. The vials were then shaken at 25° C. and 1,100 rpm for 24 hours.
After 24 hours, the vials were centrifuged at 3220 G and 25° C. for 30 minutes. The supernatant fluid was analyzed by LC-MS/MS against a standard of known concentration. The solubility of each sample was then calculated using the equation below:
[formula] where DF is the dilution factor.

The nature of series [3]: Liver microsomal stability, rat liver microsomes. Format: in vitro ADME. Particulars: 1 μM compound, NADPH, read-out: t1/2 (min) in RLM. On the procedure:
as §1, §2, §3, §4
Background: Liver microsomes are vesicles of endoplasmic reticulum, rich in cytochrome P450 enzymes.

[4] abbreviates: PBS pH 2.0, shaken at 25° C. for 24 hours, read-out: Solubility at pH 2.0.
[5] abbreviates: PBS pH 7.4, shaken at 25° C. for 24 hours, read-out: Solubility at pH 7.4.
Where [6] appears, read: phosphate buffered saline, PBS pH 2.0, shaken at 25° C. for 24 hours, read-out: Solubility at pH 2.0.
[7] abbreviates: phosphate buffered saline, PBS pH 7.4, shaken at 25° C. for 24 hours, read-out: Solubility at pH 7.4.

Read-outs that look alike come from different tables or passages of the source.

The values below come from patent US11485736B2 (KSQ Therapeutics, Inc., priority 2018, dated 2022).

A word on the solubility: it is how much of the substance goes into solution per volume. As to `COc1ncnc(C2CC2)c1-c1ncc2cnn(Cc3ccc(-c4nc(C(F)(F)F)cn4C)c(F)c3)c2n1` [Example 17], the half-life at 1 μM in series [1] and in series [3] was greater than 25 min in each case. Besides, the solubility at 24 h in series [2] (setting [4]) and in series [2] (setting [5]) was less than 10 µM throughout.
Consider `CCn1cc(C(F)(F)F)nc1-c1ccc(Cn2ncc3cnc(-c4c(OC)ncnc4C4CC4)nc32)cc1F` [Example 18], for which the half-life at 1 μM in series [1] and in series [3] was greater than 25 min in each case. Further, the solubility at 24 h in series [2] (setting [4]) and in series [2] (setting [5]) was less than 10 µM in each case.
As for `COc1ncnc(C2CC2)c1-c1ncc2cnn(Cc3ccc(-c4nc(C(F)(F)F)cn4C(C)C)c(F)c3)c2n1` [Example 19], the half-life at 1 μM in series [1] and in series [3] was greater than 25 min throughout. Further, the solubility at 24 h in series [2] (setting [4]) and in series [2] (setting [5]) was greater than 10 µM each time.
For `COc1ncnc(C2CC2)c1-c1ncc2cnn(Cc3ccc(-c4nc(C(F)(F)F)cn4C)cc3F)c2n1` [Example 20], the half-life at 1 μM in series [1] and in series [3] was greater than 25 min throughout. Further, the solubility at 24 h in series [2] (setting [4]) and in series [2] (setting [5]) was less than 10 µM in each case.
As to `CSc1cccc(C)c1-c1ncc2cnn(Cc3ccc(-c4nc(C(F)(F)F)cn4C)cc3)c2n1` [Example 21], the half-life at 1 μM in series [1] and in series [3] was less than 25 min each time. Further, the solubility at 24 h in series [2] (setting [4]) and in series [2] (setting [5]) was less than 10 µM in each case.
As to `Cc1cc(C(F)(F)F)nn1-c1ccc(Cn2ncc3cnc(-c4ccccc4C(C)C)nc32)cc1` [Example 23], the half-life at 1 μM in series [1] was greater than 25 min; in series [3], less than 25 min. Moreover, the solubility at 24 h in series [2] (setting [4]) and in series [2] (setting [5]) was less than 10 µM throughout.
For the molecule `CC(C)c1ccccc1-c1ncc2cnn(C(C)c3ccc(-c4nc(C(F)(F)F)cn4C)cc3)c2n1` (stereo not drawn) [Example 24], the half-life at 1 μM in series [1] and in series [3] was less than 25 min in each case. In addition, the solubility at 24 h in series [2] (setting [4]) and in series [2] (setting [5]) was less than 10 µM in each case.
As to `Cc1nn(Cc2ccc(-c3nc(C(F)(F)F)cn3C)cc2)c2nc(-c3ccccc3C(C)C)ncc12` [Example 25], the half-life at 1 μM in series [1] and in series [3] was less than 25 min in each case. Further, the solubility at 24 h in series [2] (setting [4]) and in series [2] (setting [5]) was less than 10 µM each time.
Consider `Cc1cc(C(F)(F)F)nn1-c1ccc(Cn2ncc3cnc(-c4cccnc4C(C)C)nc32)cc1` [Example 26], for which the results for the half-life at 1 μM in series [1] and in series [3] were greater than 25 min and less than 25 min, respectively. Further, the solubility at 24 h in series [2] (setting [4]) was greater than 10 µM; in series [2] (setting [5]), less than 10 µM.
The like results for `COc1ncnc(C2CC2)c1-c1ncc2cnn(Cc3ccc(-n4nc(C(F)(F)F)cc4C)cc3)c2n1` [Example 27] were, in that order, greater than 25 min, greater than 25 min, less than 10 µM and less than 10 µM.
With `COc1ncnc(C2CC2)c1-c1nc(OC)c2cnn(Cc3ccc(-n4nc(C(F)(F)F)cc4C)cc3)c2n1` [Example 28], the half-life at 1 μM in series [1] and in series [3] was greater than 25 min each time. In addition, the solubility at 24 h in series [2] (setting [4]) and in series [2] (setting [5]) was less than 10 µM in each case.
In the case of `COc1ncnc(C2CC2)c1-c1ncc2cnn(Cc3ccc(-n4nc(C(F)(F)F)cc4C(C)C)cc3)c2n1` [Example 29], the half-life at 1 μM in series [1] and in series [3] was greater than 25 min throughout. Further, the solubility at 24 h in series [2] (setting [4]) and in series [2] (setting [5]) was less than 10 µM in each case.
As for `COc1ncnc(C2CC2)c1-c1ncc2cnn(Cc3ccc(-n4nc(C(F)(F)F)cc4-c4ccco4)cc3)c2n1` [Example 30, 6-(4-cyclopropyl-6-methoxypyrimidin-5-yl)-1-(4-(5-(furan-2-yl)-3-(trifluoromethyl)-1H-pyrazol-1-yl)benzyl)-1H-pyrazolo[3,4-d]pyrimidine], the half-life at 1 μM in series [1] and in series [3] was less than 25 min throughout. The solubility at 24 h in series [2] (setting [4]) and in series [2] (setting [5]) was less than 10 µM throughout.
Turning to `Cc1cc(C(F)F)nn1-c1ccc(Cn2ncc3cnc(-c4cccnc4C(C)C)nc32)cc1` [Example 32], the half-life at 1 μM in series [1] and in series [3] was less than 25 min in each case. For the same molecule, the solubility at 24 h in series [2] (setting [4]) was greater than 10 µM; in series [2] (setting [5]) it was less than 10 µM.
Regarding `COc1ncnc(C)c1-c1ncc2cnn(Cc3ccc(-c4nc(C(F)(F)F)cn4C)cc3)c2n1` [Example 33], the half-life at 1 μM in series [1] and in series [3] was greater than 25 min each time. In addition, the solubility at 24 h in series [2] (setting [4]) and in series [2] (setting [5]) was greater than 10 µM each time.
In the case of `COc1ncnc(C2CC2)c1-c1ncc2cnn(Cc3ccc(-c4cn(C(C)C)c(C(F)(F)F)n4)cc3)c2n1` [Example 34], the half-life at 1 μM in series [1] and in series [3] was greater than 25 min each time. For the same molecule, the solubility at 24 h in series [2] (setting [4]) and in series [2] (setting [5]) was less than 10 µM in each case.
Consider `COc1cc(Cn2ncc3cnc(-c4c(OC)ncnc4C4CC4)nc32)ccc1-c1cn(C)c(C(F)(F)F)n1` [Example 35], for which the half-life at 1 μM in series [1] and in series [3] was greater than 25 min each time. Also, the solubility at 24 h in series [2] (setting [4]) and in series [2] (setting [5]) was less than 10 µM throughout.
Consider `COc1ncnc(C2CC2)c1-c1ncc2cnn(Cc3ccc(-n4nc(C(F)(F)F)cc4OC)cc3)c2n1` [Example 37], for which the half-life at 1 μM in series [1] and in series [3] was greater than 25 min in each case. The solubility at 24 h in series [2] (setting [4]) and in series [2] (setting [5]) was less than 10 µM each time.
On to `COc1ncnc(C2CC2)c1-c1ncc2cnn(Cc3ccc(-n4nc(C(F)(F)F)cc4SC)cc3)c2n1` [Example 38], for which the half-life at 1 μM in series [1] and in series [3] was less than 25 min each time. For the same molecule, the solubility at 24 h in series [2] (setting [4]) and in series [2] (setting [5]) was less than 10 µM in each case.
With `CCOc1ncnc(C2CC2)c1-c1ncc2cnn(Cc3ccc(-c4nc(C(F)(F)F)cn4C)cc3)c2n1` [Example 39], the half-life at 1 μM in series [1] and in series [3] was less than 25 min in each case. Also, the values for the solubility at 24 h in series [2] (setting [6]) and in series [2] (setting [7]) were greater than 10 µM and less than 10 µM, respectively.
As for `CC(C)Oc1ncnc(C2CC2)c1-c1ncc2cnn(Cc3ccc(-c4nc(C(F)(F)F)cn4C)cc3)c2n1` [Example 40], the half-life at 1 μM in series [1] and in series [3] was less than 25 min throughout. In addition, the solubility at 24 h in series [2] (setting [4]) was greater than 10 µM; in series [2] (setting [5]), less than 10 µM.
Regarding `COCCOc1ncnc(C2CC2)c1-c1ncc2cnn(Cc3ccc(-c4nc(C(F)(F)F)cn4C)cc3)c2n1` [Example 42], the half-life at 1 μM in series [1] and in series [3] was less than 25 min in each case. In addition, the solubility at 24 h in series [2] (setting [4]) and in series [2] (setting [5]) was greater than 10 µM each time.
Regarding `COCCOc1ncnc(C2CC2)c1-c1ncc2cnn(Cc3ccc(-n4nc(C(F)(F)F)cc4C)cc3)c2n1` [Example 43], the half-life at 1 μM in series [1] and in series [3] was less than 25 min in each case. Further, the solubility at 24 h was less than 10 µM in series [2] (setting [4]) and greater than 10 µM in series [2] (setting [5]).
For `Cc1cnn(C(C)C)c1-c1ncc2cnn(Cc3ccc(-n4nc(C(F)(F)F)cc4C)cc3)c2n1` [Example 44], the half-life at 1 μM in series [1] and in series [3] was less than 25 min each time. Moreover, the solubility at 24 h in series [2] (setting [4]) and in series [2] (setting [5]) was less than 10 µM in each case.
As for `Cc1ncnc(C(C)C)c1-c1ncc2cnn(Cc3ccc(-n4nc(C(F)(F)F)cc4C)cc3)c2n1` [Example 45], the half-life at 1 μM in series [1] and in series [3] was less than 25 min in each case. Further, the solubility at 24 h in series [2] (setting [6]) and in series [2] (setting [7]) was less than 10 µM in each case.
For `CSc1ncnc(C)c1-c1ncc2cnn(Cc3ccc(-n4nc(C(F)(F)F)cc4C)cc3)c2n1` [Example 46], the half-life at 1 μM in series [1] and in series [3] was less than 25 min throughout. The solubility at 24 h in series [2] (setting [4]) and in series [2] (setting [5]) was less than 10 µM in each case.
`COCCOc1ncnc(C)c1-c1ncc2cnn(Cc3ccc(-n4nc(C(F)(F)F)cc4C)cc3)c2n1` [Example 47]: the half-life at 1 μM in series [1] and in series [3] was less than 25 min each time. Further, the solubility at 24 h in series [2] (setting [4]) and in series [2] (setting [5]) was greater than 10 µM each time.
